Measurements reported in patent publication US20170080049A1, “MEDICINE AGAINST GROWTH FAILURE INDUCED BY ADMINISTRATION OF STEROID” (DAIICHI SANKYO COMPANY, LIMITED, priority 2014, published 2017).

How the values were obtained:
Type in all cases: in vivo
[1] = test system: rat growth failure induced by dexamethasone; test: Action comparing study between CNP derivative (A) and human growth hormone on rat growth failure induced by dexamethasone (Example 6); conditions: 2 mL/kg s.c. once a day 28 days, n=4 or 5
Method: Osmotic pumps (MINI-OSMOTIC PUMP Model 2004, available from DURECT CORPORATION, flow rate: 0.25 μL/hr, for 28 days) were charged with a 0.67 mg/mL solution of dexamethasone (dexamethasone injection “KS”, available from Kyoritsuseiyaku Corporation), and one osmotic pump was embedded in the hypoderm of the back of each 4-week-old male Crlj:WI (Wistar) rat (5 animals/group, Group 2 to Group 4, total of 15 animals). For Group 3, a 1 mg/mL solution of CNP derivative (A) (medium: 0.03 mol/L acetate buffer (pH 4.0)/1% benzyl alcohol/10% sucrose), and for Group 4, a 1 mg/mL solution of human-type growth hormone preparation (somatropin BS subcutaneous injection 10 mg “SANDOZ”) diluted with a phosphate buffer was administered to the hypoderm of the back of five rats, respectively, in a volume of 2 mL/kg once a day for 28 days. No substance was administered to the normal control group (5 animals, Group 1). On the final day, after measuring the body weight, the body length and the tail length, the blood was collected from the abdominal aorta and the animal was caused to die under isoflurane anesthesia, the left femur was extracted and the bone length was measured, and then a histopathological specimen of the epiphyseal region was prepared.

male Crl: CD (SD) rat = test: Preparation of dexamethasone-induced growth failure model rat (Example 1); conditions: continuous s.c. dexamethasone 0.5 or 1 mg/mL, 28 days
Method: Osmotic pumps (MINI-OSMOTIC PUMP Model 2004, available from DURECT CORPORATION, flow rate: 0.25 μL/hr, for 28 days) were charged with dexamethasone (dexamethasone injection “KS”, available from Kyoritsuseiyaku Corporation) having a concentration of 0.5 mg/mL (Group 2) or 1 mg/mL (Group 3), and one osmotic pump was embedded in the hypoderm of the back of each 7-week-old male Crl: CD (SD) rat (5 animals/group, a total of 10 animals). Additionally, in a control group (Group 1, 5 animals), one osmotic pump (the same as above) charged with saline was embedded in the hypoderm of the back of each animal. Then the animals were fed for 28 days, and their bodyweight was measured twice or three times a week. On the final day, after blood collection under isoflurane anesthesia followed by immediate euthanasia, the right femur was extracted, and the length was measured. Plasma was separated from the collected blood, and cholesterol concentration was determined by using cholesterol E-Test Wako (available from Wako Pure Chemical Industries, Ltd.), and the plasma corticosterone concentration was determined by using a Corticosterone, ELISA Kit, AssayMax (96 well) (EC3001-1, available from ASSAYPRO LLC.).

[2] = test system: dexamethasone-induced growth failure, male Crlj:WI (Wistar) rat; conditions: dexamethasone 1 mg/mL pump alone or combined with CNP derivative (A) 20 mg/mL pump, continuous s.c. 28 days, mean ± SD, n=6
Method: Osmotic pumps (MINI-OSMOTIC PUMP Model 2004, available from DURECT CORPORATION, flow rate: 0.25 μL/hr, for 28 days) were charged with a 1 mg/mL solution of dexamethasone (dexamethasone injection “KS”, available from Kyoritsuseiyaku Corporation, Group 2 and Group 3) or saline in a control group (Group 1), and one osmotic pump was embedded in the hypoderm of the back of each 7-week-old male Crlj:WI (Wistar) rat. At the same time, one osmotic pump (the same as described above) charged with a 20 mg/mL solution of CNP derivative (A) in Group 3, or charged with Medium 1 (0.03 mol/L acetate buffer (pH 4.0)/1% benzyl alcohol/10% sucrose) in Group 1 and Group 2 was embedded in the hypoderm of the back simultaneously with the pump containing dexamethasone or saline. Then the animals were fed for 28 days, and the body weight, the body length (length from the top of the nose to the anus) and the tail length were measured on the final day, and after collecting the blood from the abdominal aorta under isoflurane anesthesia, the right femur and major organs (spleen, thymus, liver, heart and lung) were collected. Regarding the femur, the bone length and width were measured by using a caliper, and the organ weights were measured. Concentrations of cholesterol and IGF-1 in plasma prepared from the blood, were determined by using cholesterol E-Test Wako (available from Wako Pure Chemical Industries, Ltd.) and Quantikine® ELISA Mouse/Rat IGF-I Immunoassay (MG100, available from R&D Systems). [Result]

[3] = test system: rat growth failure induced by dexamethasone; test: Follow-up administration test of CNP derivative (A) for rat growth failure induced by dexamethasone (Example 4); conditions: n=5
Method: Osmotic pumps (MINI-OSMOTIC PUMP Model 2004, available from DURECT CORPORATION, flow rate: 0.25 μL/hr, for 28 days) were charged with a 0.67 mg/mL solution of dexamethasone (dexamethasone injection “KS”, available from Kyoritsuseiyaku Corporation), and one osmotic pump was embedded in the hypoderm of the back of each 4-week-old male Crlj:WI (Wistar) rat (5 animals/group, Group 2 and Group 3), and the animals were fed for 14 days. […] During the feeding period, transitions of the body weight, the body length and the tail length were measured, and on the final day, blood was collected from the abdominal aorta and the animal was caused to die under isoflurane anesthesia, the right femur was extracted and its length was measured.

[4] = dexamethasone 0.67 mg/mL pump alone or with CNP derivative (A) or human-type growth hormone 1 mg/mL
[5] = dexamethasone 0.67 mg/mL pump alone or with CNP derivative (A) 15 mg/mL pump for 28 days from Day 14
[6] = dexamethasone 0.67 mg/mL pump, 4-week-old male Wistar rat, baseline before CNP derivative (A)

Structure (SMILES): C[C@@H]1C[C@H]2[C@@H]3CCC4=CC(=O)C=C[C@]4(C)[C@@]3(F)[C@@H](O)C[C@]2(C)[C@@]1(O)C(=O)CO [Dexamethasone, dexamethasone]
- Body weight at dissection ([1]; dexamethasone 0.67 mg/mL pump 28 days alone or with CNP derivative (A) or human-type growth hormone 1 mg/mL, 4-week-old male Wistar rat, mean ± SD): 245 ± 12 g
- Body length at dissection [1, 4]: 199 ± 4 mm
- Body length, variation from pre-administration value (Δ value) [1, 4]: (46.8 ± 4.7) mm
- Body weight, variation from pre-administration value (Δ value) [1, 4]: (139 ± 13) g
- Left femur length at dissection [1, 4]: 31.3 ± 0.2 mm
- Tail length at dissection [1, 4]: 197 ± 5 mm
- Tail length, variation from pre-administration value (Δ value) [1, 4]: (65.0 ± 4.9) mm
- body weight (in words) (male Crl: CD (SD) rat; SD rat (FIG. 1)): decreased dose-dependently
- femur length (in words) (male Crl: CD (SD) rat; SD rat (FIG. 2)): shortened dose-dependently
- Body length at final day ([2]; 7-week-old male Wistar rat): 219 ± 5 mm
- Tail length at final day ([2]; 7-week-old male Wistar rat): 195 ± 6 mm
- Right femur Length ([2]; male Wistar rat): 35.6 ± 0.6 mm
- Right femur Wide (epiphyseal region, maximum width) ([2]; male Wistar rat): 7.7 ± 0.4 ^NS mm
- Body weight at dissection (Day 28 of CNP derivative (A) administration) ([3]; dexamethasone 0.67 mg/mL pump 28 days alone or with CNP derivative (A) 15 mg/mL pump for 28 days from Day 14, male Wistar rat): 308 ± 20 g
- Body length at dissection (Day 28 of CNP derivative (A) administration) [3, 5]: 204 ± 3 mm
- Body length variation (Δ value) from starting of administration of CNP derivative (A) [3, 5]: (30 ± 1) mm
- Body weight variation (Δ value) from starting of administration of CNP derivative (A) [3, 5]: (129 ± 9) g
- Right femur length only at dissection [3, 5]: 32.9 ± 0.7 mm
- Tail length at dissection (Day 28 of CNP derivative (A) administration) [3, 5]: 202 ± 8 mm
- Tail length variation (Δ value) from starting of administration of CNP derivative (A) [3, 5]: (25 ± 7) mm
- Body weight, Day 14 of dexamethasone administration (prior to administration of CNP derivative (A)) ([3]; dexamethasone 0.67 mg/mL pump, 4-week-old male Wistar rat, baseline before CNP derivative (A), mean ± SD): 179 ± 12 g
- Body length, Day 14 of dexamethasone administration (prior to administration of CNP derivative (A)) [3, 6]: 174 ± 4 mm
- Tail length, Day 14 of dexamethasone administration (prior to administration of CNP derivative (A)) [3, 6]: 177 ± 7 mm
